Laboratory results taken from US12011444B2, “N-substituted indole derivatives as PGE2 receptor modulators” (Idorsia Pharmaceuticals Ltd, priority 2015, dated 2024).

How the values were obtained:
EP4 = EP4 (Homo sapiens (Human), UniProt P35408); test: hEP4 cAMP assay (BT549 breast cancer cells, HTRF cAMP); format: cell-based
Description: Plate is pre-incubated 45 minutes at room temperature. Subsequently, 2.5 microliters of PGE2 (final conc. 6 nM) are transferred into the assay plate. Plate is incubated 30 minutes at room temperature.

EP2 = EP2 (Homo sapiens (Human), UniProt P43116);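 further: antagonism of PGE2-stimulated cAMP accumulation in SF295 human glioblastoma cells with endogenous EP2, cAMP read by HTRF, expressed relative to DMSO control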
[1] = antagonistic activity, mean values where measured multiple times
[2] = (*): measured using the cAMP assay

EP2, sequence (P43116 whole entry): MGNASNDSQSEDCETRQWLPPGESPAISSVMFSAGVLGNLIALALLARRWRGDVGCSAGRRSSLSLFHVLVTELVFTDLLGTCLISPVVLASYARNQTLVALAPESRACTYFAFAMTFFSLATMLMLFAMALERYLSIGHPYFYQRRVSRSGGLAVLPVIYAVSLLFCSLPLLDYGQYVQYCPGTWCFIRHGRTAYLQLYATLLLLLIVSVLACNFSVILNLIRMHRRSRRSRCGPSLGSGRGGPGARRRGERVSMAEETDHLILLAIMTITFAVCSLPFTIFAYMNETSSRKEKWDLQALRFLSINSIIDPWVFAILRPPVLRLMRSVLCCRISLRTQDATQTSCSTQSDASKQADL
EP4, sequence (P35408 whole entry): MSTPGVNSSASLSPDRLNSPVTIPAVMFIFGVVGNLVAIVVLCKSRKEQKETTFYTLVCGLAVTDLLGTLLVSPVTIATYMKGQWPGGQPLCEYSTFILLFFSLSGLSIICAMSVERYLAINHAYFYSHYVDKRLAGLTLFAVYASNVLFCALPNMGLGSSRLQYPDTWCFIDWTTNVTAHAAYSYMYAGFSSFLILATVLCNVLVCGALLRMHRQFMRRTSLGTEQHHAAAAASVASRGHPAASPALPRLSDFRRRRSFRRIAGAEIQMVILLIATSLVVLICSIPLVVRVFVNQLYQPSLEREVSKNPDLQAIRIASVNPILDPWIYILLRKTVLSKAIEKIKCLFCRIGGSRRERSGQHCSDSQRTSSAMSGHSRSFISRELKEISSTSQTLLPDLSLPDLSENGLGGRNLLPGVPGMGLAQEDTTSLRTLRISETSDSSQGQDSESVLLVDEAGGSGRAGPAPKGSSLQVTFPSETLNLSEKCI

SMILES	IC50 (EP4; [1])	IC50 (EP2)	IC50 (EP4; [2])
COc1c(F)cc(Cl)c2c1cc(C)n2CCNc1cc(-c2ccc3[nH][nH]c(=O)c3c2)ncn1 [Example 783, 5-{6-[2-(7-Chloro-5-fluoro-4-methoxy-2-methyl-indol-1-yl)-ethylamino]-pyrimidin-4-yl}-1,2-dihydro-indazol-3-one]	912 nM	271 nM	–
Cc1ccc(F)c2c1cc(C)n2CCNc1cc(-c2ccc(-c3csc(CC(N)=O)n3)cc2)ncn1 [Example 784, 2-[4-(4-{6-[2-(7-Fluoro-2,4-dimethyl-indol-1-yl)-ethylamino]-pyrimidin-4-yl}-phenyl)-thiazol-2-yl]-acetamide]	512 nM	63 nM	–
Cc1ccc(Cl)c2c1cc(C)n2CCNc1cc(-c2ccc(C(=O)O)c(S/C=C/F)c2)ncn1 [Example 788, 4-{6-[2-(7-Chloro-2,4-dimethyl-indol-1-yl)-ethylamino]-pyrimidin-4-yl}-2-((E)-2-fluoro-vinylsulfanyl)-benzoic acid]	925 nM	49 nM	–
CCOC(=O)c1sc(-c2cc(NCCn3c(C)cc4c(OC)ccc(F)c43)ncn2)cc1OCC [Example 790, 3-Ethoxy-5-{6-[2-(7-fluoro-4-methoxy-2-methyl-indol-1-yl)-ethylamino]-pyrimidin-4-yl}-thiophene-2-carboxylic acid ethyl ester]	101 nM	42 nM	–
COc1ccc(F)c2c1cc(C)n2CCNc1cc(-c2ccc(C3(C(=O)O)CCCC3)cc2)ncn1 [Example 791, 1-(4-{6-[2-(7-Fluoro-4-methoxy-2-methyl-indol-1-yl)-ethylamino]-pyrimidin-4-yl}-phenyl)-cyclopentanecarboxylic acid]	639 nM	325 nM	–
CCOc1cc(-c2cc(NCCn3c(C#N)cc4c(OC)ccc(F)c43)ncn2)sc1/C=C/C(=O)O [Example 931, (E)-3-(5-{6-[2-(2-Cyano-7-fluoro-4-methoxy-indol-1-yl)-ethylamino]-pyrimidin-4-yl}-3-ethoxy-thiophen-2-yl)-acrylic acid]	–	35 nM	14 nM
COc1cc(-c2cc(NCCn3c(C)cc4c(OC)ccc(Cl)c43)ncn2)cc(C)c1C(=O)O [compound 404]	448 nM	96 nM	–
COc1cc(-c2cc(NCCn3c(C)cc4c(OC)ccc(F)c43)ncn2)cc(C)c1C(=O)O [compound 406]	266 nM	47 nM	–
CCOc1cc(-c2cc(NCCn3c(C)cc4c(OC)c(Cl)cc(F)c43)ncn2)sc1C(=O)O [compound 409]	146 nM	345 nM	–
Cc1ccc(Cl)c2c1cc(C)n2CCNc1cc(-c2ccc(C(=O)O)c(SC(C)C)c2)ncn1 [compound 410]	390 nM	51 nM	–
CCCc1cc(-c2cc(NCCn3c(C)cc4c(C)cc(F)cc43)ncn2)cc(Cl)c1C(=O)O [compound 412]	79 nM	36 nM	–
CCCc1cc(-c2cc(NCCn3c(C)cc4c(C)ccc(F)c43)ncn2)cc(Cl)c1C(=O)O [compound 413]	55 nM	29 nM	–
CCCc1cc(-c2cc(NCCn3c(C)cc4cc(C)cc(F)c43)ncn2)cc(Cl)c1C(=O)O [compound 414]	199 nM	35 nM	–
CCCc1cc(-c2cc(NCCn3c(C)cc4c(C)cc(F)cc43)ncn2)cc(F)c1C(=O)O [compound 415]	153 nM	53 nM	–
CCCc1cc(-c2cc(NCCn3c(C)cc4cc(C)cc(F)c43)ncn2)cc(F)c1C(=O)O [compound 417]	396 nM	28 nM	–
Cc1cc2c(Cl)cc(Cl)cc2n1CCNc1cc(-c2ccc(C(=O)O)c(CC(C)C)c2)ncn1 [compound 418]	691 nM	74 nM	–
Cc1cc2c(Cl)cc(F)cc2n1CCNc1cc(-c2ccc(C(=O)O)c(CC(C)C)c2)ncn1 [compound 419]	403 nM	90 nM	–
Cc1cc(F)c(F)c2c1cc(C)n2CCNc1cc(-c2cc(C(F)(F)F)c(C(=O)O)s2)ncn1 [compound 420]	93 nM	95 nM	–
Cc1cc(Cl)cc2c1cc(C)n2CCNc1cc(-c2ccc(C(=O)O)c(CC(C)C)c2)ncn1 [compound 421]	342 nM	60 nM	–
Cc1cc(F)cc2c1cc(C)n2CCNc1cc(-c2ccc(C(=O)O)c(CC(C)C)c2)ncn1 [compound 422]	148 nM	34 nM	–
Cc1nc(NCCn2c(C)cc3c(C)cc(F)cc32)cc(-c2cc(C(F)(F)F)c(C(=O)O)s2)n1 [compound 423]	35 nM	44 nM	–
Cc1cc2c(Cl)ccc(Cl)c2n1CCNc1cc(-c2ccc(C(=O)O)c(SC(C)C)c2)ncn1 [compound 424]	257 nM	31 nM	–
CCCc1cc(-c2cc(NCCn3c(C)cc4cc(Cl)cc(F)c43)ncn2)cc(F)c1C(=O)O [compound 425]	521 nM	73 nM	–
CCCc1cc(-c2cc(NCCn3c(C)cc4cc(Cl)cc(F)c43)ncn2)cc(Cl)c1C(=O)O [compound 427]	240 nM	85 nM	–

Now those with a lower IC50 (EP2), led by results:

IC50 (EP4; [1])	IC50 (EP2)	IC50 (EP4; [2])	SMILES
775 nM	25 nM	–	CCc1cc(-c2cc(NCCn3c(C)cc4c(OC)ccc(Cl)c43)ncn2)cc(F)c1C(=O)O [compound 429]
–	24 nM	15 nM	CCOc1cc(-c2cc(NCCn3c(C#N)cc4c(OC)ccc(F)c43)ncn2)sc1C(=O)NS(=O)(=O)C1CC1 [Example 816, Cyclopropanesuifonic acid (5-{6-[2-(2-cyano-7-fluoro-4-methoxy-indol-1-yl)-ethylamino]-pyrimidin-4-yl}-3-ethoxy-thiophene-2-carbonyl)-amide]
729 nM	21 nM	–	CCOc1cc(-c2cc(NCCn3c(C)cc4c(C)c(F)c(F)cc43)ncn2)ccc1C(=O)O [Example 787, 4-{6-[2-(5,6-Difluoro-2,4-dimethyl-indol-1-yl)-ethylamino]-pyrimidin-4-yl}-2-ethoxy-benzoic acid]
128 nM	20 nM	–	CCOc1cc(-c2cc(NCCn3c(C)cc4c(OC)cc(F)cc43)ncn2)ccc1C(=O)O [compound 403]
443 nM	20 nM	–	Cc1cc2c(F)c(F)ccc2n1CCNc1cc(-c2ccc(C(=O)O)c(CC(C)C)c2)ncn1 [compound 411]
182 nM	19 nM	–	COc1cc(-c2cc(NCCn3c(C)cc4c(OC)ccc(F)c43)ncn2)cc(Cl)c1C(=O)O [compound 401]
356 nM	18 nM	–	CCOc1cc(-c2cc(NCCn3c(C)cc4c(OC)ccc(Cl)c43)ncn2)ccc1C(=O)O [compound 405]
483 nM	17 nM	–	CCNc1cc(-c2cc(NCCn3c(C)cc4c(F)ccc(OC)c43)ncn2)ccc1C(=O)O [compound 399]
759 nM	17 nM	–	CCCc1cc(-c2cc(NCCn3c(C)cc4cc(F)cc(Cl)c43)ncn2)cc(Cl)c1C(=O)O [compound 426]
319 nM	16 nM	–	COc1ccc(F)c2c1cc(C)n2CCNc1cc(-c2ccc(-c3csc(CC(N)=O)n3)cc2)ncn1 [Example 786, 2-[4-(4-{6-[2-(7-Fluoro-4-methoxy-2-methyl-indol-1-yl)-ethylamino]-pyrimidin-4-yl}-phenyl)-thiazol-2-yl]-acetamide]
636 nM	15 nM	–	CCOc1cc(-c2cc(NCCn3c(C)cc4c(OC)cccc43)ncn2)cc(F)c1C(=O)O [compound 407]
99 nM	14 nM	–	CCCc1cc(-c2cc(NCCn3c(C)cc4c(C)ccc(F)c43)ncn2)cc(F)c1C(=O)O [compound 416]
906 nM	13 nM	–	COc1cccc2c1cc(C)n2CCNc1cc(-c2ccc(-c3csc(CC(N)=O)n3)cc2)ncn1 [Example 785, 2-[4-(4-{6-[2-(4-Methoxy-2-methyl-indol-1-yl)-ethylamino]-pyrimidin-4-yl}-phenyl)-thiazol-2-yl]-acetamide]
–	11 nM	29 nM	CCOc1cc(-c2cc(NCCn3c(C#N)cc4c(Cl)cc(F)c(F)c43)ncn2)sc1C(=O)O [Example 941, 5-{6-[2-(4-Chloro-2-cyano-6,7-difluoro-indol-1-yl)-ethylamino]-pyrimidin-4-yl}-3-ethoxy-thiophene-2-carboxylic acid]
164 nM	11 nM	–	COc1cccc2c1cc(C)n2CCNc1cc(-c2ccc(C(=O)O)c(CC(C)C)c2)ncn1 [compound 428]
159 nM	10 nM	–	CCOc1cc(-c2cc(NCCn3c(C)cc4c(OC)cc(Cl)cc43)ncn2)ccc1C(=O)O [compound 402]
923 nM	6 nM	–	Cc1cc2ccccc2n1CCNc1cc(-c2ccc(-c3nnn[nH]3)c(O)c2)ncn1 [Example 789, 5-{6-[2-(2-Methyl-indol-1-yl)-ethylamino]-pyrimidin-4-yl}-2-(1H-tetrazol-5-yl)-phenol]
418 nM	6 nM	–	CCCOc1cc(-c2cc(NCCn3c(C)cc4c(OC)cccc43)ncn2)ccc1C(=O)O [compound 400]
3 nM	4 nM	–	CCOc1cc(-c2cc(NCCn3c(C)cc4c(OC)cc(F)c(F)c43)ncn2)sc1C(=O)O [compound 408]
18 nM	3 nM	–	COc1ccc(F)c2c1cc(C)n2CCNc1cc(-c2ccc(-c3nnn[nH]3)s2)ncn1 [Example 793, [2-(7-Fluoro-4-methoxy-2-methyl-indol-1-yl)-ethyl]-{6-[5-(1H-tetrazol-5-yl)-thiophen-2-yl]-pyrimidin-4-yl}-amine]
178 nM	3 nM	–	CCNc1cc(-c2cc(NCCn3c(C)cc4c(OC)cccc43)ncn2)cc(F)c1C(=O)O [compound 398]
227 nM	2 nM	–	Cc1cc2ccccc2n1CCNc1cc(-c2ccc(-c3nnn[nH]3)s2)ncn1 [Example 792, [2-(2-Methyl-indol-1-yl)-ethyl]-{6-[5-(1H-tetrazol-5-yl)-thiophen-2-yl]-pyrimidin-4-yl}-amine]
65 nM	1 nM	–	CCNc1cc(-c2cc(NCCn3c(C)cc4c(OC)ccc(Cl)c43)ncn2)ccc1C(=O)O [compound 396]
20 nM	1 nM	–	CCNc1cc(-c2cc(NCCn3c(C)cc4c(OC)ccc(F)c43)ncn2)ccc1C(=O)O [compound 397]
